Data on 7 compounds can be found in patent publication US11666630B2, “Polypeptides for managing viral infections” (priority 2016, dated 2023).

In assay [1] the test system is ZIKV (PRVABC59 strain). The note with it: for activity of truncated and mutant Yodha peptides against ZIKV compared with parent peptide: FIG. 7E; for reduction of ZIKV: dose escalation, FFA.
Assay [2] has as its system ZIKV. The assay is described as follows: Peptide treatment of Vero cells already infected with ZIKV, FFU assay of culture supernatants. The class given is cell-based, Zika virus. The note with it: for ZIKV in culture supernatant: 3 hours post-infection, peptide 40 μM.
Assay [3] concerns ZIKV (PRVABC59). The assay is described as follows: Immunofluorescence of ZIKV envelope in Vero cells. The conditions noted are these: ZIKV exposed to peptide before infection. It counts as cell-based, Zika virus.
The subject of assay [4] is H1N1. It counts as cell-based, human influenza virus. The note with it: incubated with virus at 37° C. for 1 hour, MDCK cells.
The test system of assay [5] is H3N2. It counts as cell-based, human influenza virus. The conditions noted are these: incubated with virus at 37° C. for 1 hour, MDCK cells.
Assay [6] has as its system H1N2. It counts as cell-based, influenza virus.
In assay [7] the test system is H3N1. It counts as cell-based, influenza virus.
The subject of assay [8] is influenza viruses. It counts as cell-based, influenza virus.
The test system of assay [9] is H2 avian influenza hemagglutinin. The class given is binding. The note with it: biotinylated Yodha peptide, streptavidin PE detection.
Assay [10] concerns H5 avian influenza hemagglutinin. It counts as binding. The note with it: biotinylated Yodha peptide, streptavidin PE detection.
In assay [11] the test system is H7 avian influenza hemagglutinin. It counts as binding. The note with it: biotinylated Yodha peptide, streptavidin PE detection.
Assay [12] deals with H9 avian influenza hemagglutinin. The class given is binding. The note with it: biotinylated Yodha peptide, streptavidin PE detection.
For assay [13], the system named is Recombinant hemagglutinins from three H3 viruses. The class given is binding, influenza virus. The note with it: biotinylated Yodha peptide, streptavidin PE detection.
The test system of assay [14] is Clade A HIV. The assay is described as follows: HIV inhibition, graded doses of peptide. It counts as cell-based. The conditions noted are these: 40 uM peptide. As for the experimental part:
(§1) FIG. 10A. […] Clades A, B and C HIV viruses were exposed to graded doses (5 um-160 uM) of either Yodha peptide or control OVA peptide.

In assay [15] the test system is Clade B HIV. As to the kind of experiment: HIV inhibition, graded doses of peptide. The class given is cell-based. The conditions noted are these: 40 uM peptide. As for the experimental part: as §1
The test system of assay [16] is Clade C HIV. The assay is described as follows: HIV inhibition, graded doses of peptide. It counts as cell-based. The conditions noted are these: 40 uM peptide. As for the experimental part:
as §1

The test system of assay [17] is DENV 1. The assay is described as follows: FFA of DENV 1 incubated with peptide.
Assay [18] deals with DENV 2. The assay is described as follows: FFA of DENV 2 incubated with peptide.
In assay [19] the test system is DENV 3. As to the kind of experiment: FFA of DENV 3 incubated with peptide.
The subject of assay [20] is DENV 4. As to the kind of experiment: FFA of DENV 4 incubated with peptide.
Assay [21] relates to ZIKV. The assay is described as follows: Transmission electron microscopy of peptide-treated ZIKV. The conditions noted are these: 200 μM peptide, 10 min treatment.
For assay [22], the system named is PRVABC ZIKV. The assay is described as follows: ZIKV infection of anti-Ifnar1 mAb treated mice, viremia and viral burden by real time PCR. A general note: In qPCR the cycle at which signal appears reflects the starting amount.
In assay [23] the test system is ZIKV. As to the kind of experiment: ZIKV entry into Vero cells, viral RNA by qRT-PCR. The note with it: ZIKV pre-incubated with 200 μM peptide.

Entries after “also recorded” stand apart in the source; their conditions may differ. Read-outs that look alike come from different tables or passages of the source. Peptide text beside a SMILES is read from it.

As to SMLLLFFLGTISLSLCQ [short Yodha peptide], in assay [1], the “activity of truncated and mutant Yodha peptides against ZIKV compared with parent peptide” value (from here on “activity … compared with parent peptide”) was “significantly improved activity”.
Broadly, the IC50 is the concentration at which inhibition is half-maximal. Higher therefore signals a need for much substance. In the case of `CC[C@H](C)[C@H](NC(=O)[C@@H](NC(=O)CNC(=O)[C@H](CC(C)C)NC(=O)[C@H](Cc1ccccc1)NC(=O)[C@H](Cc1ccccc1)NC(=O)[C@H](CC(C)C)NC(=O)[C@H](CC(C)C)NC(=O)[C@H](CC(C)C)NC(=O)[C@H](CCSC)NC(=O)[C@@H](N)CO)[C@@H](C)O)C(=O)N[C@@H](CO)C(=O)N[C@@H](CC(C)C)C(=O)N[C@@H](CO)C(=O)N[C@@H](CC(C)C)C(=O)N[C@@H](CS)C(=O)N[C@@H](CCC(N)=O)C(=O)N[C@@H](CC(=O)O)C(=O)N[C@@H](CC(=O)O)C(=O)N[C@@H](CCC(N)=O)C(=O)N[C@@H](CCC(=O)O)C(=O)N[C@@H](CCCNC(=N)N)C(=O)N[C@@H](CS)C(=O)O` [Yodha peptide] (H-SMLLLFFLGTISLSLCQDDQERC-OH; N-terminus and C-terminus assumed), the “reduction in ZIKV production” value in assay [2] (48 and 72 hours post-infection, peptide 40 μM added after infection) is reported as 60-70%. The “ZIKV in culture supernatant” value in [2] is listed as “not detected”. Further, in [2] (peptide 40 μM added after infection), the “ZIKV titers in the supernatants” value is reported as “significantly reduced”. For the same compound, in [3], the “expression of ZIKV envelope in Vero cells (immunofluorescence)” value is listed as “decreased expression of ZIKV envelope”. In addition, in [4], the “virucidal activity against H1N1” value is given as “virucidal; also recorded: neutralizes”. The “virucidal activity against H3N2” value in assay [5] is reported as “virucidal; also recorded: neutralizes”. In addition, in assay [6], the “virucidal activity against H1N2” value was “virucidal”. Further, the “virucidal activity against H3N1” value in assay [7] is “virucidal”. Also, the “activity against subtypes of influenza viruses” value in assay [8] is given as “effective against all subtypes of influenza viruses; also recorded: effective against may subtypes of influenza viruses”. For the same compound, the “binding to H2 hemagglutinin” value in [9] is reported as “binds”. In addition, the “binding to H5 hemagglutinin” value in [10] is “binds”. Further, the “binding to H7 hemagglutinin” value in assay [11] is given as “binds”. Besides, in [12], the “binding to H9 hemagglutinin” value is reported as “binds”. Also, the “binding to HA from H3 viruses” value in assay [13] is “binds”. Besides, in assay [14], the “inhibition of clade A HIV” value is listed as “efficiently inhibited”. The “inhibition of clade B HIV” value in [15] was “efficiently inhibited”. The “inhibition of clade C HIV” value in [16] was “efficiently inhibited”. In assay [1], the “time of exposure to virus within which the virus is neutralized” value is at most 5 min. Moreover, the “reduction of ZIKV” value amounted to 35% in assay [1] (10 μM peptide); 50% in assay [1] (20 μM peptide); 65% in assay [1] (40 μM peptide); 80% in [1] (80 μM peptide); 90% in assay [1] (160 μM peptide). Besides, the IC50 in assay [1] (PRVABC59 strain, 2 h) was 20 µM. Further, in [17], the “virucidal activity against DENV 1” value is recorded as “virucidal; also recorded: neutralizes”. Also, the “neutralization of DENV 1” value in [17] (50 μM peptide) is reported as “easily neutralized; also recorded: effective”. Moreover, the “virucidal activity against DENV 2” value in assay [18] is “virucidal; also recorded: neutralizes”. In [18] (50 μM peptide), the “neutralization of DENV 2” value is recorded as “easily neutralized; also recorded: effective”. Moreover, the “virucidal activity against DENV 3” value in [19] is given as “virucidal; also recorded: neutralizes”. Besides, in [19] (50 μM versus 160 μM peptide), the “dose needed for neutralization of DENV 3” value is “required higher dose”. Moreover, the “higher dose required to be effective against DENV 4” value in assay [20] worked out at 160 µM. In addition, in assay [20], the “virucidal activity against DENV 4” value is given as “virucidal; also recorded: neutralizes”. Moreover, the “neutralization of DENV 4” value in assay [20] (50 μM peptide) is listed as “easily neutralized; also recorded: effective”. Further, the “morphology of ZIKV particles (electron microscopy)” value in assay [21] is “disruption of viral particles”. Moreover, in assay [22] (day 3 post-infection), the “ZIKV viremia in serum” value is listed as “reduces”. Further, the “ZIKV viral burden in tissues” value in assay [22] (day 6, eye and spleen) was “reduces”.
As to SMLLLFFAGTISLSLCQDDQERC [peptide 8], the “virucidal activity of alanine-scanning mutants compared with Yodha peptide” value in assay [1] (Yodha set as zero, FIG. 6B) is “statistically significant (p=0.02) antiviral activity than the parental peptide”.
In the case of PMLLLFFLGTISLSLCQDDQERC [S 1P Yodha], the “activity … compared with parent peptide” value in assay [1] was “significantly more effective”.
Take PMLLLFFLGTISLSLCQEEERGA [Variant 12]: in [1] (FIG. 7C), the “effect against ZIKV relative to Yodha peptide” value worked out at 1.6 fold.
Regarding PMLLLFFLGTISLSLCQ [Short 12 peptide], in assay [1], the “activity … compared with parent peptide” value was “significantly improved activity”. Further, the “efficiency against DENV3 infection compared with full length Yodha peptide” value in [19] (dose escalation) was “more efficient”.
For the compound “OVA257-264 peptide (ESIINFEK; UniProt P01012 257-264, looked up, fragment) [OVA peptide, reference compound]”, the “ZIKV in culture supernatant” value in assay [2] is on record as “not detected”. Besides, in [3], the “expression of ZIKV envelope in Vero cells (immunofluorescence)” value was “no such effect”. Also, the “amount of ZIKV RNA detected versus virus-only samples” value in assay [23] is “Comparable amounts”. Moreover, the “morphology of ZIKV particles (electron microscopy)” value in assay [21] is on record as “intact virions”.
